Ki and AC50 data for 31 compounds are collected here from patent US20230130109A1, “MACROCYCLIC INDOLE DERIVATIVES AS INHIBITORS OF MCL-1” (priority 2020, published 2023).

Read-outs that look alike come from different tables or passages of the source.

What is called Ki is the equilibrium dissociation constant of an inhibitor or competing ligand from its target.

Test [1] addresses T1, Myeloid Cell Leukemia 1 (Mcl-1) (Homo sapiens, UniProt Q07820).
T1 construct: Terbium (Tb) label; means of attachment not described
Briefly: biochemical. The class given is binding.

In test [2] the test system is MOLP-8 human multiple myeloma cell line. Briefly: Caspase-Glo 3/7 apoptosis induction assay in MOLP-8 cells. The class given is cell-based. The settings on record: averaged over all runs on all batches. The text has this:
MCL-1 is a regulator of apoptosis and is highly over-expressed in tumor cells that escape cell death. The assay evaluates the cellular potency of small-molecule compounds targeting regulators of the apoptosis pathway, primarily MCL-1, Bfl-1, Bcl-2, and other proteins of the Bcl-2 family. Protein-protein inhibitors disrupting the interaction of anti-apoptotic regulators with BH3-domain proteins initiate apoptosis.
The Caspase-Glo® 3/7 Assay is a luminescent assay that measures caspase-3 and −7 activities in purified enzyme preparations or cultures of adherent or suspension cells. The assay provides a proluminescent caspase-3/7 substrate, which contains the tetrapeptide sequence DEVD. This substrate is cleaved to release aminoluciferin, a substrate of luciferase used in the production of light. Addition of the single Caspase-Glo® 3/7 Reagent in an “add-mix-measure” format results in cell lysis, followed by caspase cleavage of the substrate and generation of a “glow-type” luminescent signal.
This assay uses the MOLP-8 human multiple myeloma cell line, which is sensitive to MCL-1 inhibition.
Cell cultures were maintained between 0.2 and 2.0×10^6 cells/mL. The cells were harvested by collection in 50 mL conical tubes. The cells were then pelleted at 500 g for 5 mins before removing supernatant and resuspension in fresh pre-warmed culture medium. The cells were counted and diluted as needed.
The assay reagent was prepared by transferring the buffer solution to the substrate vial and mixing. The solution may be stored for up to 1 week at 4° C. with negligible loss of signal.
Compounds were delivered in assay-ready plates (Proxiplate) and stored at −20° C.
Assays always include 1 reference compound plate containing reference compounds. The plates were spotted with 40 nL of compounds (0.5% DMSO final in cells; serial dilution; […] highest conc. 1/3 dilution, 10 doses, duplicates). The compounds were used at room temperature and 4 μL of pre-warmed media was added to all wells except column 2 and 23. The negative control was prepared by adding 1% DMSO in media. The positive control was prepared by adding the appropriate positive control compound in final concentration of […] in media. The plate was prepared by adding 4 μL negative control to column 23, 4 μL positive control to column 2 and 4 μL cell suspension to all wells in the plate. The plate with cells was then incubated at 37° C. for 2 hours. The assay signal reagent is the Caspase-Glo solution described above, and 8 μL was added to all wells. The plates were then sealed and measured after 30 minutes.
The activity of a test compound was calculated as percent change in apoptosis induction as follows: […]

Setting [3] is: Homo sapiens, MOLP-8, 2 h, read-out: MOLP8 Caspase-Glo AC50 (nM) LD value, MOLP-8 cells, 2 hours at 37° C., caspase-3/7 luminescence.
Setting [4] is: read-out: MOLP8 Caspase-Glo AC50 (nM) LD value, MOLP-8 cells, 2 hours at 37° C., caspase-3/7 luminescence.

T1 sequence (Q07820 whole entry): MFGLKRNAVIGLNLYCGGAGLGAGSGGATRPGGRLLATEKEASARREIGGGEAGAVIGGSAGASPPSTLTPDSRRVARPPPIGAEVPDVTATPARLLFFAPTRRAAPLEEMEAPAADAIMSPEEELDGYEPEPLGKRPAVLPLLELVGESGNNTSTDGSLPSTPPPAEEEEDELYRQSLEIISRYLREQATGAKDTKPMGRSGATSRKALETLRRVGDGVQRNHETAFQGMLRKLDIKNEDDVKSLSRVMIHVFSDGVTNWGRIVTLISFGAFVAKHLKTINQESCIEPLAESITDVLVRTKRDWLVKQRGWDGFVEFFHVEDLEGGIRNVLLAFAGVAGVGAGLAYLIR

For `COCCOCCn1nc(C)c2c1C[S+]([O-])Cc1cc(n(C)n1)CCc1cc(c3ccc(F)cc3c1)OCCCn1c(C(=O)O)c(C)c3c-2c(Cl)ccc31` (single isomer, unassigned) [Compound 49], the Ki in test [1] (TB-MCL1 Ki (nM)) stood at 0.01 nM. The AC50 in test [2] (setting [3]) stood at 141 nM. Take `COCCOCCn1nc(C)c2c1C[S+]([O-])Cc1cc(n(C)n1)CCc1cc(c3ccc(F)cc3c1)OCCCn1c(C(=O)O)c(C)c3c-2c(Cl)ccc31` (single isomer, unassigned) [Compound 50]: the Ki in test [1] (TB-MCL1 Ki (nM)) was determined as 0.013 nM. In test [2] (setting [4]), the AC50 turned out to be 83.6 nM. Taken in the same sequence, the figures for `COCCOCCn1nc2c(c1C)-c1c(Cl)ccc3c1c(C)c(C(=O)O)n3CCCOc1cc(cc3c(F)c(F)ccc13)CCc1cc(nn1C)CSC2` (single isomer, unassigned) [Compound 63] were 0.026 nM and 22 nM. `COCCOCCn1nc(C)c2c1CSCc1cc(n(C)n1)CCc1cc(c3ccc(F)c(F)c3c1)OCCCn1c(C(=O)O)c(C)c3c-2c(Cl)ccc31` (single isomer, unassigned) [Compound 64] registered an inhibition constant Ki in test [1] (TB-MCL1 Ki (nM)) of 2.33 nM. The AC50 in test [2] (setting [3]) was determined as 2100 nM. In test [1] (TB-MCL1 Ki (nM)), `COCCOCCn1nc2c(c1C)-c1c(Cl)ccc3c1c(C)c(C(=O)O)n3CCCOc1cc(cc3c(F)c(F)ccc13)CCc1cc(nn1C)CSC2` (single isomer, unassigned) [Compound 65] had a Ki of 2.98 nM. Moreover, the AC50 in test [2] (setting [4]) was 1600 nM.

The compound `COCCOCCn1nc(C)c2c1CS(=O)(=O)Cc1cc(n(C)n1)CCc1cc(c3ccc(F)cc3c1)OCCCn1c(C(=O)O)c(C)c3c-2c(Cl)ccc31` (single isomer, unassigned) [Compound 67] yielded a Ki in test [1] (TB-MCL1 Ki (nM)) of 0.017 nM. In test [2] (setting [3]), the AC50 came to 104 nM. Taken in the same sequence, the figures for `CNCCn1nc2c(c1C)-c1c(Cl)ccc3c1c(C)c(C(=O)O)n3CCCOc1cc(cc3cc(F)ccc13)CCc1cc(nn1C)CSC2` (single isomer, unassigned) [Compound 68] were 0.008 nM and 440 nM. In test [1] (TB-MCL1 Ki (nM)), `CNCCn1nc(C)c2c1CSCc1cc(n(C)n1)CCc1cc(c3ccc(F)cc3c1)OCCCn1c(C(=O)O)c(C)c3c-2c(Cl)ccc31` (single isomer, unassigned) [Compound 69] registered a Ki of 0.014 nM. The AC50 in test [2] (setting [3]) amounted to 402 nM.

For the compound `Cc1c(C(=O)O)n2c3ccc(Cl)c(c13)-c1c(nn(C)c1C)CSCc1cc(n(C)n1)CCc1cc(c3ccccc3c1)OCCC2` [Compound 2], the Ki in test [1] (TB-MCL1 Ki (nM)) was 0.483 nM. Also, in test [2] (setting [3]), the AC50 was determined as 1260 nM.

In test [1] (TB-MCL1 Ki (nM)), `Cc1c(C(=O)O)n2c3ccc(Cl)c(c13)-c1c(nn(C)c1C)CSCc1cc(n(C)n1)CCc1cc(c3c(F)cccc3c1)OCCC2` [Compound 5] had a Ki of 0.411 nM. For the same compound, the AC50 in test [2] (setting [3]) was 1290 nM. Compound `Cc1c(C(=O)O)n2c3ccc(Cl)c(c13)-c1c(nn(C)c1C)CS(=O)(=O)Cc1cc(n(C)n1)CCc1cc(c3ccccc3c1)OCCC2` [Compound 6] gave a Ki in test [1] (TB-MCL1 Ki (nM)) of 0.059 nM. For the same compound, the AC50 in test [2] (setting [4]) came to 931 nM. The corresponding values for `Cc1c(C(=O)O)n2c3ccc(Cl)c(c13)-c1c(nn(C)c1C)CS(=O)(=O)Cc1cc(n(C)n1)CCc1cc(c3ccccc3c1)OCCC2` [Compound 7] are 1.71 nM and 11900 nM. For `Cc1c(C(=O)O)n2c3ccc(Cl)c(c13)-c1c(nn(C)c1C)CN(C)Cc1cc(n(C)n1)CCc1cc(c3ccc(F)cc3c1)OCCC2` [Compound 8], the AC50 in test [2] (setting [4]) was determined as 68.8 nM. Same read-out and setting: the same measure for `Cc1c(C(=O)O)n2c3ccc(Cl)c(c13)-c1c(nn(C)c1C)CN(C)Cc1cc(n(C)n1)CCc1cc(c3ccc(F)cc3c1)OCCC2` [Compound 9]: 1170 nM.

In test [1] (TB-MCL1 Ki (nM)), `COCCOCCOCCn1nc(C)c2c1CSCc1cc(n(C)n1)CCc1cc(c3ccc(F)cc3c1)OCCCn1c(C(=O)O)c(C)c3c-2c(Cl)ccc31` [Compound 16] had a Ki of 0.024 nM. The AC50 in test [2] (setting [3]) turned out to be 19.7 nM. Taken in the same sequence, the figures for `COCCOCCOCCn1nc2c(c1C)-c1c(Cl)ccc3c1c(C)c(C(=O)O)n3CCCOc1cc(cc3cc(F)ccc13)CCc1cc(nn1C)CSC2` [Compound 17] were 0.018 nM and 46.8 nM. The corresponding values for `COCCn1nc(C)c2c1CSCc1cc(n(C)n1)CCc1cc(c3ccc(F)cc3c1)OCCCn1c(C(=O)O)c(C)c3c-2c(Cl)ccc31` [Compound 18] are 0.025 nM and 17 nM. As to `COCCn1nc2c(c1C)-c1c(Cl)ccc3c1c(C)c(C(=O)O)n3CCCOc1cc(cc3cc(F)ccc13)CCc1cc(nn1C)CSC2` [Compound 19], the Ki in test [1] (TB-MCL1 Ki (nM)) was 0.035 nM. Further, the AC50 in test [2] (setting [3]) is 20.7 nM. `COCC(COC)n1nc(C)c2c1CSCc1cc(n(C)n1)CCc1cc(c3ccc(F)cc3c1)OCCCn1c(C(=O)O)c(C)c3c-2c(Cl)ccc31` [Compound 20] came in with a Ki in test [1] (TB-MCL1 Ki (nM)) of 0.026 nM. Further, the AC50 in test [2] (setting [3]) was 8.8 nM. As to `COCC(COC)n1nc2c(c1C)-c1c(Cl)ccc3c1c(C)c(C(=O)O)n3CCCOc1cc(cc3cc(F)ccc13)CCc1cc(nn1C)CSC2` [Compound 21], the Ki in test [1] (TB-MCL1 Ki (nM)) turned out to be 0.066 nM. The AC50 in test [2] (setting [3]) came to 49.5 nM. The corresponding values for `Cc1nn(CCC2CCOCC2)c2c1-c1c(Cl)ccc3c1c(C)c(C(=O)O)n3CCCOc1cc(cc3cc(F)ccc13)CCc1cc(nn1C)CSC2` [Compound 22] are 0.029 nM and 20.1 nM. `Cc1c(C(=O)O)n2c3ccc(Cl)c(c13)-c1c(nn(CCC3CCOCC3)c1C)CSCc1cc(n(C)n1)CCc1cc(c3ccc(F)cc3c1)OCCC2` [Compound 23] came in with an inhibition constant (Ki) in test [1] (TB-MCL1 Ki (nM)) of 0.016 nM. In test [2] (setting [3]), the AC50 turned out to be 30.6 nM. In test [1] (TB-MCL1 Ki (nM)), `Cc1nn(C)c2c1-c1c(Cl)ccc3c1c(C)c(C(=O)O)n3CCCOc1cc(cc3cc(F)ccc13)CCc1cc(nn1C)CSC2` [Compound 28] yielded a Ki of 0.028 nM. Also, the AC50 in test [2] (setting [3]) came out at 16.7 nM. Take `COCCOCCn1nc(C)c2c1CSCc1cc(n(C)n1)CCc1cc(c3ccc(F)cc3c1)OCCCn1c(C(=O)O)c(C)c3c-2c(Cl)ccc31` [Compound 31]: the Ki in test [1] (read-out: TB-MCL1 Ki) stood at 0.015 nM. In turn, `Cc1nn(CCCN)c2c1-c1c(Cl)ccc3c1c(C)c(C(=O)O)n3CCCOc1cc(cc3cc(F)ccc13)CCc1cc(nn1C)CSC2` [Compound 38] returned a Ki in test [1] (TB-MCL1 Ki (nM)) of 0.019 nM. Besides, the AC50 in test [2] (setting [3]) was found to be 540 nM.

In the case of `COCCn1nc(C)c2c1CSCc1cc(n(C)n1)CCc1cc(c3ccc(Cl)cc3c1)OCCCn1c(C(=O)O)c(C)c3c-2c(Cl)ccc31` [Compound 41], in test [2] (setting [4]), the AC50 is 568 nM. For `COCCn1nc(C)c2c1CSCc1cc(n(C)n1)CCc1cc(c3ccc(Cl)cc3c1)OCCCn1c(C(=O)O)c(C)c3c-2c(Cl)ccc31` [Compound 47], the AC50 in test [2] (setting [4]) was determined as 2710 nM. `Cc1nn(CCOCCO)c2c1-c1c(Cl)ccc3c1c(C)c(C(=O)O)n3CCCOc1cc(cc3cc(F)ccc13)CCc1cc(nn1C)CSC2` [Compound 51] gave a Ki in test [1] (TB-MCL1 Ki (nM)) of 0.013 nM. The AC50 in test [2] (setting [3]) turned out to be 87.3 nM. On to `Cc1nn(CCO)c2c1-c1c(Cl)ccc3c1c(C)c(C(=O)O)n3CCCOc1cc(cc3cc(F)ccc13)CCc1cc(nn1C)CSC2` [Compound 52], for which, in test [2] (setting [4]), the AC50 was found to be 39.4 nM. The same measure, in the same setting: the same measure for `Cc1nn(CCO)c2c1-c1c(Cl)ccc3c1c(C)c(C(=O)O)n3CCCOc1cc(cc3cc(F)ccc13)CCc1cc(nn1C)CSC2` [Compound 53]: 1250 nM. In turn, `COCCOCCn1nc(C)c2c1CSCc1cc(n(C)n1)CCc1cc(c3ccc(F)c(F)c3c1)OCCCn1c(C(=O)O)c(C)c3c-2c(Cl)ccc31` [Compound 62] yielded a Ki in test [1] (TB-MCL1 Ki (nM)) of 0.027 nM. The AC50 in test [2] (setting [3]) was found to be 11.3 nM.
